Measured values reported in article PMC4918930, “Investigation of Elemental Mass Spectrometry in Pharmacology for Peptide Quantitation at Femtomolar Levels” (PLoS ONE, 2016).
Residues, ends and D or L forms follow the SMILES beside them.

Target: T1, human V1A receptor (Homo sapiens, UniProt P37288)
T1 construct: expressed in transfected cells
Assay: Saturation experiment with RP-LC-ICP-MS (78Se) read-out on CHO cells stably expressing the human V1A receptor
Conditions: [Se-Se]-AVP 0.05 nM to 80 nM, non-specific with 2000-fold excess of AVP, binding buffer pH 7.4, 4 h at 4°C, 1% TFA dissociation, mean of 2 independent experiments carried out in triplicate, ±SD, read-out: dissociation constant (Kd)
Method: (§1) Assays were performed in triplicate.
as §1

T1 sequence (P37288 whole entry): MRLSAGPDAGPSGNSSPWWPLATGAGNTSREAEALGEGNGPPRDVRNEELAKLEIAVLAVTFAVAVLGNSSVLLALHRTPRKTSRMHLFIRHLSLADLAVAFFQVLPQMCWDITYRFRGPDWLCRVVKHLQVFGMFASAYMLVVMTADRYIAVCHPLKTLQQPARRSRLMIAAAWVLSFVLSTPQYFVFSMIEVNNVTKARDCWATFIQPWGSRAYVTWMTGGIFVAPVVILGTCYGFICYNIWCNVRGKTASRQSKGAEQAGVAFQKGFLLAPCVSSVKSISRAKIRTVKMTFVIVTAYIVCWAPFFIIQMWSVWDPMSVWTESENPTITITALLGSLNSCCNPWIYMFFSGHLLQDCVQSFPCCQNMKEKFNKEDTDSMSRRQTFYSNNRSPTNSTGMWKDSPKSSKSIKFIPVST

## N=C(N)NCCC[C@H](NC(=O)[C@@H]1CCCN1C(=O)[C@@H]1C[Se][Se]C[C@H](N)C(=O)N[C@@H](Cc2ccc(O)cc2)C(=O)N[C@@H](Cc2ccccc2)C(=O)N[C@@H](CCC(N)=O)C(=O)N[C@@H](CC(N)=O)C(=O)N1)C(=O)NCC(N)=O [[Se-Se]-AVP] (HELM PEPTIDE1{[N[C@@H](C[Se][*:3])C(=O)[*:2]].Y.F.Q.N.[O=C([C@H](C[Se][*:3])N[*:1])[*:2]].P.R.G.[am]}$PEPTIDE1,PEPTIDE1,1:R3-6:R3$$$V2.0)
  Kd: 0.99 ± 0.14 nM
